Values quoted from earlier work, collected in patent US6825040B2, “Method of using a vapor acid test kit” (Mainstream Engineering Corporation, priority 1995, dated 2004).
Like-named read-outs stand apart in the source and are kept apart here.

Experiments:
[1] = negative log of the dissociation equilibrium constant of the indicator
[2] = pH range of the indicator colour change

SMILES	pKa [1]	pH Range [2]	pH Range ([2]; listed as Thymol blue)
Cc1c(C2(c3cc(Br)c(O)c(Br)c3C)OS(=O)(=O)c3ccccc32)cc(Br)c(O)c1Br [Bromocresol green, Tetrabromo-m-cresolsulfonephthalein]	4.58	4.0 to 6.8	–
Cc1cc(C2(c3cc(C)c(O)c(Br)c3)OS(=O)(=O)c3ccccc32)cc(Br)c1O [Bromocresol purple, Dibromo-o-cresolsulfonephthalein]	–	5.2 to 6.8	–
O=S1(=O)OC(c2ccc(O)c(Br)c2)(c2ccc(O)c(Br)c2)c2ccccc21 [Bromophenol red, Dibromophenolsulfonephthalein]	–	5.2 to 6.8	–
Cc1c(C2(c3cc(C(C)C)c(O)c(Br)c3C)OS(=O)(=O)c3ccccc32)cc(C(C)C)c(O)c1Br [Bromothymol blue, Dibromothymolsulfonephthalein]	–	6.2 to 7.6	–
O=S1(=O)OC(c2ccc(O)c(Cl)c2)(c2ccc(O)c(Cl)c2)c2ccccc21 [Chlorophenol red, Dichlorophenolsulfonephthalein]	6.0	5.4 to 6.8	–
CN(C)c1ccc(N=Nc2ccc(S(=O)(=O)[O-])cc2)cc1.[Na+] [Methyl orange, Dimethylaminoazobenzene sodium sulfonate]	3.40	3.1 to 4.4	–
CN(C)c1ccc(/N=N/c2ccccc2C(=O)O)cc1 [Methyl red, o-Carboxybenzeneazodimethylaniline]	4.95	4.4 to 6.2	–
O=C1OC(c2ccc(O)cc2)(c2ccc(O)cc2)c2ccccc21 [Phenolphthalein]	9.4	8.0 to 10.0	–
Cc1cc(O)c(C(C)C)cc1C1(c2cc(C(C)C)c(O)cc2C)OS(=O)(=O)c2ccccc21 [Thymol blue (acid range), Thymolsulfonephthalein]	–	1.2 to 2.8	8.0 to 9.6
Cc1cc(O)c(C(C)C)cc1C1(c2cc(C(C)C)c(O)cc2C)OC(=O)c2ccccc21 [Thymolphthalein]	10.0	9.4 to 10.6	–
O=S(=O)([O-])c1ccc(N=Nc2ccc(Nc3ccccc3)cc2)cc1.[Na+] [Tropeolin 00, Diphenylamino-p-benzene sodium sulfonate]	–	1.3 to 3.2	–
O=S(=O)([O-])c1ccc(N=Nc2ccc(O)cc2O)cc1.[Na+] [Tropeolin 0, p-Sulfobenzeneazoresorcinol]	–	11.0 to 13.0	–
